Where a name gives a salt, the structure may show the parent alone.
Experiments:
[1] = stated as background for single daily dosage; cited from earlier work
[2] = tested on: Piroxicam-Induced Gastric Lesions in Rats; assay: Protective effect of disodium 5'-guanylate on piroxicam-induced gastric lesions in rats; assay type: in vivo, CD strain (Sprague-Dawley), male; details: for Lesions/Rat (X +/- SE): mean (SE)
Protocol: (§1) Adult male "specific pathogen free" rats weighing 140-160 grams of the CD strain (Sprague-Dawley) were obtained from Charles River Breeding Laboratories (Kingston, N.Y.). The animals were acclimated for approximately one week and tested when they reached a body weight of 200-225 grams. The rats were fasted for 16 hours and randomized into groups consisting of 10 animals which were normalized with regard to their average body weight.
(§2) Gastric ulcers were induced in the animals by orally dosing them with a single 120 mg/kg dose of piroxicam (ethanolamine salt) in 2 ml. of aqueous 0.1% methylcellulose (pH=6.8). Those animals receiving disodium 5'-guanylate separately received the second drug in an additional 2 ml. of the same medium at about the same time. Six and one-half hours later, the animals were sacrificed by cervical dislocation and autopsied. The stomachs were surgically removed, dissected along the greater curvature and rinsed with cold water. The stomachs were individually scored for both linear and punctate lesions. The total number of lesions was used for scoring purposes. The data obtained from each group of rats was analyzed after calculation of the mean number +/- the standard error of total gastric lesions. The values obtained were also compared to the controls which received only piroxicam by the two-tailed Student's T-Test for non-paired data.

[3] = tested on: Piroxicam Induced Gastric Lesions in Rats; assay: Protective effect of N-acetyl-L-methionine on piroxicam induced gastric lesions in rats; assay type: in vivo, CD strain (Sprague-Dawley), male; details: for Lesions/Rat (X +/- SE): mean (SE)
Protocol: as §1, §2
By the procedure of the preceding Example, the protective effect of the N-acetyl-L-methionine on piroxicam induced gastric lesions in rats was determined.

gastric ulcers in rats = details: Tanaka et al. 1982, Kunimi et al. 1982; cited from earlier work
[4] = tested on: gastrointestinal ulcers induced by the subcutaneous injection of indomethacin; details: Urishidani et al. 1977; cited from earlier work
[5] = tested on: gastric mucosal damage of aspirin solutions in rats; details: Lim et al. 1979; cited from earlier work

## CN1C(C(=O)Nc2ccccn2)=C(O)c2ccccc2S1(=O)=O [piroxicam, 4-hydroxy-2-methyl-N-2-pyridinyl-2H-1,2-benzothiazine-3-carboxamide 1,1-dioxide]
[1]
  in vivo half-life: long

## CN1C(C(=O)Nc2ccccn2)=C(O)c2ccccc2S1(=O)=O [Ethanolamine Salt of Piroxicam, 4-hydroxy-2-methyl-N-2-pyridinyl-2H-1,2-benzothiazine-3-carboxamide 1,1-dioxide, reference compound]
[2]; control: 120 mg/kg oral ethanolamine salt of piroxicam alone, 40 rats, 6.5 h
  Lesions/Rat (X +/- SE): 8.3 (0.9) Lesions/Rat
[3]; control: 120 mg/kg oral ethanolamine salt of piroxicam alone, 50 rats
  Lesions/Rat (X +/- SE): 8.0 (0.8) Lesions/Rat

## NCCC(=O)N[C@@H](Cc1cnc[nH]1)C(=O)O [L-carnosine]
Gastric ulcers in rats
  prevention of the exacerbation of gastric ulcers by certain antiinflammatory agents: not

## Nc1nc2c(ncn2[C@@H]2O[C@H](COP(=O)(O)O)[C@@H](O)[C@H]2O)c(=O)[nH]1 [Disodium 5'-Guanylate, guanosine 5'-monophosphate]
[2]; healthy fasted rat, oral
  reduction of piroxicam-induced gastric lesions: significantly reduces piroxicam-induced gastric lesions
[2]; oral 1.0 mg/kg, 20 rats, with 120 mg/kg piroxicam ethanolamine salt
  Lesions/Rat (X +/- SE): 8.1 (0.7) Lesions/Rat
[2]; oral 3.3 mg/kg, 20 rats, with 120 mg/kg piroxicam ethanolamine salt
  Lesions/Rat (X +/- SE): 5.8 (0.5) Lesions/Rat
[2]; oral 10.0 mg/kg, 30 rats, with 120 mg/kg piroxicam ethanolamine salt
  Lesions/Rat (X +/- SE): 4.6 (0.8) Lesions/Rat
[2]; oral 33.0 mg/kg, 40 rats, with 120 mg/kg piroxicam ethanolamine salt
  Lesions/Rat (X +/- SE): 3.9 (0.6) Lesions/Rat

## CC(=O)NCCC(=O)N[C@@H](Cc1c[nH]cn1)C(=O)O [N-acetyl-L-carnosine, N-(N-acetyl-beta-alanyl)-L-histidine]
Gastric ulcers in rats
  prevention of the exacerbation of gastric ulcers by certain antiinflammatory agents: not

## CC(=O)N[C@@H](CCC(N)=O)C(=O)O [aluminum salts of N-acetyl-L-glutamine, N-acetyl-L-glutamine]
Gastric ulcers in rats
  prevention of the exacerbation of gastric ulcers by certain antiinflammatory agents: prevent the exacerbation of gastric ulcers

## CC(=O)NCCC(=O)N[C@@H](Cc1c[nH]cn1)C(=O)O [aluminum salts of N-acetyl-L-carnosine, N-(N-acetyl-beta-alanyl)-L-histidine]
Gastric ulcers in rats
  prevention of the exacerbation of gastric ulcers by certain antiinflammatory agents: prevent the exacerbation of gastric ulcers

## CSCC[C@H](NC(C)=O)C(=O)O [N-Acetyl-L-methionine, N-acetyl-L-methionine]
[3]; Rattus norvegicus, 6.5 h, oral, 120 mg/kg piroxicam ethanolamine salt, read-out: ED50 (dose of the N-acetylmethionine required to inhibit 50% of control gastric lesions)
  ED50: 100 to 333 mg/kg
[3]; oral 33 mg/kg, 50 rats, with 120 mg/kg piroxicam ethanolamine salt
  Lesions/Rat (X +/- SE): 6.9 (0.8) Lesions/Rat
[3]; oral 100 mg/kg, 40 rats, with 120 mg/kg piroxicam ethanolamine salt
  Lesions/Rat (X +/- SE): 3.9 (0.8) Lesions/Rat
[3]; oral 333 mg/kg, 20 rats, with 120 mg/kg piroxicam ethanolamine salt
  Lesions/Rat (X +/- SE): 3.5 (0.9) Lesions/Rat

## CSCC[C@H](N)C(=O)O [methionine]
[4]
  inhibition of gastrointestinal ulcers: inhibit gastrointestinal ulcers
[5]
  effect on gastric mucosal damage of aspirin solutions: beneficial effect

From patent US4994457A, “Antiinflammatory compositions and methods” (Pfizer Inc., priority 1987, dated 1991)
